Results on four compounds are retold here after PMC9052873 (Journal of medicinal chemistry, 2020).

Like-named read-outs stand apart in the source and are kept apart here.

One assay has as its target PNMT. The settings on record: read-out: Ki^PEA; ref [85]; cited from earlier work.
Assay [1] deals with T1, bovine PNMT (Bos taurus, UniProt P10938).
T1 sequence (P10938 1-283): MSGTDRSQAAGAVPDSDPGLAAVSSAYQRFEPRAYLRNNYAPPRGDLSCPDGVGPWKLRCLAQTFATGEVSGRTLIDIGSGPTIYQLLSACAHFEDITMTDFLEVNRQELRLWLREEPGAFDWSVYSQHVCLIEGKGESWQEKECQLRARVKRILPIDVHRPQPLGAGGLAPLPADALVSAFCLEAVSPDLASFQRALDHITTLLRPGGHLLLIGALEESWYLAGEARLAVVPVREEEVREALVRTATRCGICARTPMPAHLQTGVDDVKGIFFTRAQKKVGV
The settings on record: read-out: PNMT Kis^PEA; bovine enzyme; ref [16]; cited from earlier work.

Assay [2] deals with T1, bovine PNMT. Kind of assay: PNMT inhibition, bovine enzyme. Type of assay: biochemical.
For a further assay, the target named is T2, human PNMT (hPNMT) (Homo sapiens, UniProt P11086).
T2 sequence (P11086 1-282): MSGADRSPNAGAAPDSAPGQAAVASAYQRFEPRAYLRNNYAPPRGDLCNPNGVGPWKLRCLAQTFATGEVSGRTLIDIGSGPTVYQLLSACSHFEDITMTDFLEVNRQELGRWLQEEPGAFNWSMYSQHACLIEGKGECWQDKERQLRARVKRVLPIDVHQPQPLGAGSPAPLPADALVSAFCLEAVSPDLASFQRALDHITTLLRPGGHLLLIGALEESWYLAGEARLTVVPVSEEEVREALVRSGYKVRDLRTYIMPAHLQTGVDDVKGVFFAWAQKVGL
Description: radiochemical assay for hPNMT inhibitory potency.

On to `c1ccc2c(c1)CCNC2` [Compound 10, 1,2,3,4-tetrahydroisoquinoline], for which the Ki on PNMT was 10 µM.
In the case of `NC(=O)C1Cc2ccccc2CN1` (centres unmarked) [Compound 13], the Ki on bovine PNMT [1] was 31 µM.
With `NCC1Cc2ccccc2CN1` (centres unmarked) [Compound 14], the Ki at bovine PNMT [2] was 1.4 µM. For the same compound, on human PNMT (hPNMT) (14 (aminomethyl) versus 13 (aminocarbonyl)), the “greater potency as an inhibitor of hPNMT than 13” value is reported as “over 20 fold”.
On to tris(hydroxymethyl)amino methane, for which the “inhibition in PNMT assays” value on human PNMT (hPNMT) (buffer component, prompted a switch to phosphate buffer) is on record as “inhibition being observed”.
